These results are taken from publication PMC6628159 (Marine Drugs, 2019).

The target in assay [1] is T1, recombinant human HDAC1 (Homo sapiens, UniProt Q13547).
T1 construct: purchased BPS Biosciences
The assay is described as follows: Recombinant human HDAC1 enzymatic assay (Ac-peptide-AMC, fluorescence). The format is biochemical.
Protocol: (§1) The assays were carried out by Shanghai ChemPartner Co., Ltd. (Shanghai, China). Briefly, different concentrations of compounds were incubated with recombinant human HDAC1, HDAC2, HDAC3, HDAC6, and HDAC8 (BPS Biosciences, San Diego, CA, USA) at room temperature for 15 min, which was followed by adding Ac-peptide-AMC substrates to initiate the reaction in Tris-based assay buffer. Reaction mixtures were incubated at room temperature for 60 min in the HDAC1, HDAC2, HDAC3, and HDAC6 assays, and were incubated for 240 min in the HDAC8 assay. Then a stop solution containing trypsin was added. The coupled reaction was incubated for another 90 min at 37 °C. […] IC50 values were calculated by GraphPad Prism version 4.00 Windows (GraphPad Software, San Diego, CA, USA).

The target of assay [2] is T2, recombinant human HDAC2 (Homo sapiens, UniProt Q92769).
T2 construct: purchased BPS Biosciences
Put plainly: Recombinant human HDAC2 enzymatic assay (Ac-peptide-AMC, fluorescence). The class given is biochemical.
Protocol: as §1

Assay [3] has as its target T3, recombinant human HDAC3 (Homo sapiens, UniProt O15379).
T3 construct: purchased BPS Biosciences
Put plainly: Recombinant human HDAC3 enzymatic assay (Ac-peptide-AMC, fluorescence). The class given is biochemical. Conditions: 10-dose IC50 mode in duplicate, threefold serial dilution; 60 min reaction; read-out: IC50 ± SD HDAC3.
Protocol: as §1

Assay [4] addresses T4, recombinant human HDAC8 (Homo sapiens, UniProt Q9BY41).
T4 construct: purchased BPS Biosciences
T4 sequence (Q9BY41 1-377): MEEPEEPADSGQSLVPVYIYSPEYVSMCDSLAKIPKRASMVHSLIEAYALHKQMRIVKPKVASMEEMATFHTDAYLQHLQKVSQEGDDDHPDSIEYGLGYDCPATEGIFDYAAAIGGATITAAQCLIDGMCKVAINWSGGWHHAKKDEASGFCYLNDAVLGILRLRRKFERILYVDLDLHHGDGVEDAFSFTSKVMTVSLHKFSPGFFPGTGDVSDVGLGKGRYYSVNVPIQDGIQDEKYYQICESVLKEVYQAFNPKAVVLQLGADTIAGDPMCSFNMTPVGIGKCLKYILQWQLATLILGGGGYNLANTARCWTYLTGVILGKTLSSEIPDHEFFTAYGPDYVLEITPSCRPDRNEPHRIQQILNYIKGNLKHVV
The assay is described as follows: Recombinant human HDAC8 enzymatic assay (Ac-peptide-AMC, fluorescence). The class given is biochemical.
Protocol: as §1

For assay [5], the target named is T5, recombinant human HDAC6 (Homo sapiens, UniProt Q9UBN7).
T5 construct: purchased BPS Biosciences
T5 sequence (Q9UBN7 1-1215): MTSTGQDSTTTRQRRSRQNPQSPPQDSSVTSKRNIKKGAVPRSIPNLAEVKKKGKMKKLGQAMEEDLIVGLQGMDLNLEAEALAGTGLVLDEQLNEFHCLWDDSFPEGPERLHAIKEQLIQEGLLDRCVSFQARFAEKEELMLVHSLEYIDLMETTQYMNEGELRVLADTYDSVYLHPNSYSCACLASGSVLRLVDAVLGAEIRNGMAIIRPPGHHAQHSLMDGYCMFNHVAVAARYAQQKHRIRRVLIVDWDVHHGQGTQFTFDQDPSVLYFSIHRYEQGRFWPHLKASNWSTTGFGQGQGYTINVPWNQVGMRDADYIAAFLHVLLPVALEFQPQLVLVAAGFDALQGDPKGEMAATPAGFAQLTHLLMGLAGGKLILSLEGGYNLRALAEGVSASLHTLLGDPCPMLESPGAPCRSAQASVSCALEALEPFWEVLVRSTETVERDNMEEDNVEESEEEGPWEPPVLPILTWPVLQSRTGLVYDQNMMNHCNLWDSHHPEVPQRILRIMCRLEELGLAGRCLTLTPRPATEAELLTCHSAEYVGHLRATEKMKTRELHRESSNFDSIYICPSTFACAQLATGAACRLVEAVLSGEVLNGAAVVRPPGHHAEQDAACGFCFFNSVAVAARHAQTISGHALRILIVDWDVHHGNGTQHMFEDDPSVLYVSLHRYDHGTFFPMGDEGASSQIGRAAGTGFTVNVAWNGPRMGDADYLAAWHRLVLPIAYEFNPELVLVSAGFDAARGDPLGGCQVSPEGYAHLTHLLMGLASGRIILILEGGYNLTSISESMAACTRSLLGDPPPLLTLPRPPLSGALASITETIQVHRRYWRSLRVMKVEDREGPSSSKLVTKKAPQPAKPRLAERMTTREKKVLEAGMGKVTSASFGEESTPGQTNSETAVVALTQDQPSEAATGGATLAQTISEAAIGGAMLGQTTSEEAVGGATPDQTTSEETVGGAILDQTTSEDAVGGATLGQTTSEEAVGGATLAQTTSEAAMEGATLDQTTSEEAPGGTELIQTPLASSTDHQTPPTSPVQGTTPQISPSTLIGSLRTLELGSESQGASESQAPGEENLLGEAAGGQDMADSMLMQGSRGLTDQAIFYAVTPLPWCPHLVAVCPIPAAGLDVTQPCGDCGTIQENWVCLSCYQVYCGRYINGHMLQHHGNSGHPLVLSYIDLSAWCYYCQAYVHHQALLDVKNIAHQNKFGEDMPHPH
Put plainly: Recombinant human HDAC6 enzymatic assay (Ac-peptide-AMC, fluorescence). The note with it: read-out: IC50 ± SD HDAC6. The format is biochemical.
Protocol: as §1

Assay [6] relates to A549 tumor cells. The assay is described as follows: MTT assay, growth inhibition of A549 cells. The class given is cell-based. The note with it: Homo sapiens, read-out: IC50 ± SD A549 growth inhibition. A general note: Tetrazolium assays rely on reduction of a dye to a coloured formazan, in cell work by metabolically active cells.
Protocol: (§2) Cells (600,000 cells/well) were seeded in 96-well plates and incubated for 24 h before being treated with various concentrations of compounds or solvent control. Cells were further incubated for 72 h and then treated with MTT and incubated for another 3 h. The media were then removed and 100 µL DMSO was added to each well. The absorbance at 550 nm was measured by a SpectraMAX340 microplate reader (Molecular Devices, Sunnyvale, CA, USA) with a reference wavelength at 690 nm.
Assay [7] relates to HCT116 tumor cells. Put plainly: MTT assay, growth inhibition of HCT116 cells. The class given is cell-based. Conditions: seven-dose IC50 mode in duplicate, four-fold serial dilution.
Protocol: as §2
For assay [8], the system named is MDA-MB-231 tumor cells. Put plainly: MTT assay, growth inhibition of MDA-MB-231 cells. The class given is cell-based. The note with it: Homo sapiens, read-out: IC50 ± SD MDA-MB-231 growth inhibition.
Protocol: as §2
In assay [9] the test system is SK-OV-3 tumor cells. The assay is described as follows: MTT assay, growth inhibition of SK-OV-3 cells. The format is cell-based. The note with it: seven-dose IC50 mode in duplicate, four-fold serial dilution.
Protocol: as §2
Assay [10] relates to HCT116 tumor cells. The note with it: reported by Leusch; read-out: IC50 HCT116 growth inhibition (data in parentheses) (converted); cited from earlier work.
Where [11] appears, read: IC50 value ratio of HDAC 1 versus HDAC 6.
Where [12] appears, read: 10-dose IC50 mode in duplicate, threefold serial dilution, 240 min reaction, read-out: IC50 ± SD HDAC8.

Where “and” joins values, the source holds several entries; their conditions need not be identical. Identical values can stand only once. Like-named read-outs stand apart in the source and are kept apart here.

T1 sequence (Q13547 whole entry): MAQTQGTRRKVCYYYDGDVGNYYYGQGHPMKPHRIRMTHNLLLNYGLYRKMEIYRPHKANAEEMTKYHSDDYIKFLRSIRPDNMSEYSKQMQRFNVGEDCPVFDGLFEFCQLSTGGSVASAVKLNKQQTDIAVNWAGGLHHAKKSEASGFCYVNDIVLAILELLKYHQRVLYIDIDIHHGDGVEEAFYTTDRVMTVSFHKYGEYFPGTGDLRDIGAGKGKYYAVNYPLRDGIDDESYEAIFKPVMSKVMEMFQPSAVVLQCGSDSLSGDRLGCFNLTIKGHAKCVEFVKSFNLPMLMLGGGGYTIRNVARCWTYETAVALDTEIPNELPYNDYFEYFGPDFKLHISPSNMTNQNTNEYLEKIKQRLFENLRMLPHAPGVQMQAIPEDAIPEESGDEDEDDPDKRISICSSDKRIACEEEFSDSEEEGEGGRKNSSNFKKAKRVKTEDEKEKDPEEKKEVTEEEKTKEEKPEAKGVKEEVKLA
T2 sequence (Q92769 whole entry): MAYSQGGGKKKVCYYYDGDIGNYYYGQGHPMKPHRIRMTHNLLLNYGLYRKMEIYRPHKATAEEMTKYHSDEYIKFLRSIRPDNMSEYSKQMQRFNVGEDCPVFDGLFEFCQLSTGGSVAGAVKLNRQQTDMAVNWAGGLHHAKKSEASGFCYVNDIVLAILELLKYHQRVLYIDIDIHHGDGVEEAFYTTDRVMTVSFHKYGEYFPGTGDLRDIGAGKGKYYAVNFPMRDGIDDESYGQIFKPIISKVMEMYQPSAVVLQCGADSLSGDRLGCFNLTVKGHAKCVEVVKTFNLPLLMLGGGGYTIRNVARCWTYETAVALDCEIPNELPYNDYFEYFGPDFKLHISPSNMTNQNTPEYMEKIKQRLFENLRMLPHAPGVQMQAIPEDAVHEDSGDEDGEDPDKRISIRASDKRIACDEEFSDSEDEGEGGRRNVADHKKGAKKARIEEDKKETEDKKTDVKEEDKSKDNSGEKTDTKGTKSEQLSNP
T3 sequence (O15379 whole entry): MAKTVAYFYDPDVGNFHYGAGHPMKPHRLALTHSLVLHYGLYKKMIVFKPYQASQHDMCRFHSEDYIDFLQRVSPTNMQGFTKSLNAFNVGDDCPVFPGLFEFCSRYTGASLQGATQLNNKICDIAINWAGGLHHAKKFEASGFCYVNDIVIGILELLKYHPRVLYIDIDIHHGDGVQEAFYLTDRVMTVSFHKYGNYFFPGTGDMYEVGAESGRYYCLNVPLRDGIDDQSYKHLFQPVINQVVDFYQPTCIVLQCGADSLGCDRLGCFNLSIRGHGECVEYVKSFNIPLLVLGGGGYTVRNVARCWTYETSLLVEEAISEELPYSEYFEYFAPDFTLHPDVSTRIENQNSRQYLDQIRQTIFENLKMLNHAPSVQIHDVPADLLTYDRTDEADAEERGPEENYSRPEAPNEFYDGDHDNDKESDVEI
T3 sequence (Q9Y618 395-489 partner limits assumed): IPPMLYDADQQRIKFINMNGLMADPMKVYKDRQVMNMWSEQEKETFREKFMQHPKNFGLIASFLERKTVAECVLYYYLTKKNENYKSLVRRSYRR

By IC50 is commonly meant the point on the concentration scale where inhibition reaches its midpoint. For `C[C@@]12CSC(=N1)c1csc(n1)CNC(=O)C[C@@H](/C(F)=C/CCS)OC(=O)[C@H](Cc1ccccc1)NC2=O` [Compound 15b], the “Selectivity (HDAC1/6)” value in assay [1] (setting [11]) worked out at 80. For the same compound, the IC50 in assay [1] (read-out: IC50 ± SD HDAC1) came out at 0.0042 ± 0.0003 µM; in [2] (read-out: IC50 ± SD HDAC2) it was 0.0162 ± 0.0004 µM; in [3], 0.0371 ± 0.0007 µM; in assay [4] (setting [12]), 0.0176 ± 0.0041 µM; in assay [5], 0.338 ± 0.017 µM.
Regarding `CC(C)[C@@H]1NC(=O)[C@]2(C)CSC(=N2)c2csc(n2)CNC(=O)C[C@@H](/C(F)=C/CCS)OC1=O` [Compound 15a, (5R,8S,11S/R)-11-((Z)-1-Fluoro-4-mercaptobut-1-en-1-yl)-8-isopropyl-5-methyl-10-oxa-3,17-dithia-7,14,19,20-tetraazatricyclo[14.2.1.12,5]icosa-1(18),2(20),16(19)-triene-6,9,13-trione], the “Selectivity (HDAC1/6)” value in assay [1] (setting [11]) came to 68. In [1] (setting [11]), the “selectivity towards HDAC 1 over HDAC 6” value is on record as “about 68 fold”. Further, the IC50 was 0.0044 ± 0.0002 µM in [1] (read-out: IC50 ± SD HDAC1); 0.021 ± 0.0003 µM in assay [2] (read-out: IC50 ± SD HDAC2); 0.0392 µM and 0.039 µM in assay [3]; 0.0085 ± 0.0025 µM in assay [4] (setting [12]); 0.3 ± 0.005 µM in [5].
Take `CCCCCCCC(=O)SCC/C=C/[C@@H]1CC(=O)NCc2nc(cs2)C2=N[C@@](C)(CS2)C(=O)N[C@@H](C(C)C)C(=O)O1` [Largazole, reference compound]: the IC50 was 0.228 ± 0.034 µM in assay [1] (10-dose IC50 mode in duplicate, threefold serial dilution, 60 min reaction, read-out: IC50 ± SD HDAC1); 1.52 ± 0.015 µM in [2]; 0.12 ± 0.058 µM in [4]; 0.46 ± 0.1 µM in assay [6] (A549, 72 h); 0.184 µM in [7] (Homo sapiens, HCT-116, 72 h, read-out: IC50 ± SD HCT116 growth inhibition, MTT, 72 h); 0.18 ± 0.01 µM in assay [7] (read-out: IC50 ± SD HCT116 growth inhibition, MTT, 72 h). Moreover, the IC50 is 1.37 ± 0.41 µM in [8] (MDA-MB-231, 72 h); 0.034 µM in [9] (Homo sapiens, SK-OV-3, 72 h, read-out: IC50 ± SD SK-OV-3 growth inhibition, MTT, 72 h); 0.03 ± 0.01 µM in assay [9] (read-out: IC50 ± SD SK-OV-3 growth inhibition, MTT, 72 h); 0.044 µM in assay [10].
`CCCCCCCC(=O)SCC/C=C(\F)[C@@H]1CC(=O)NCc2nc(cs2)C2=N[C@@](C)(CS2)C(=O)N[C@@H](C(C)C)C(=O)O1` [Compound 16a, S-((Z)-4-Fluoro-4-((5R,8S,11S/R)-8-isopropyl-5-methyl-6,9,13-trioxo-10-oxa-3,17-dithia-7,14,19,20-tetraazatricyclo[14.2.1.12,5]icosa-1(18),2(20),16(19)-trien-11-yl)but-3-en-1-yl) octanethioate]: the IC50 came out at 0.385 ± 0.045 µM in [1]; 1.817 ± 0.017 µM in assay [2] (read-out: IC50 ± SD HDAC2); 0.255 ± 0.092 µM in assay [4]; 0.52 ± 0.12 µM in assay [6] (A549, MTT, 72 h, seven-dose IC50 mode in duplicate, four-fold serial dilution); 0.81 ± 0.13 µM in assay [7] (Homo sapiens, HCT-116, MTT, 72 h, read-out: IC50 ± SD HCT116 growth inhibition); 3.85 ± 0.44 µM in assay [8] (MDA-MB-231, MTT, 72 h, seven-dose IC50 mode in duplicate, four-fold serial dilution). Further, the IC50 in assay [9] (Homo sapiens, SK-OV-3, MTT, 72 h, read-out: IC50 ± SD SK-OV-3 growth inhibition) was 0.25 ± 0.13 µM.
